In ChEMBL document CHEMBL5226326, “Discovery of 1-Benzoyl 4-Phenoxypiperidines as Small-Molecule Inhibitors of the β-Catenin/B-Cell Lymphoma 9 Protein-Protein Interaction” (J Med Chem, 2021) one finds Kd and IC50 data, which are given here for 1 molecule.

A word on the Kd: it is a measure of binding affinity in units of concentration. One may read the IC50 as the concentration that inhibits the measured activity by half.

For experiment [1], the target named is T1, Catenin beta-1/Cadherin-1 (Homo sapiens, UniProt P35222).
T1 sequence (P35222 whole entry): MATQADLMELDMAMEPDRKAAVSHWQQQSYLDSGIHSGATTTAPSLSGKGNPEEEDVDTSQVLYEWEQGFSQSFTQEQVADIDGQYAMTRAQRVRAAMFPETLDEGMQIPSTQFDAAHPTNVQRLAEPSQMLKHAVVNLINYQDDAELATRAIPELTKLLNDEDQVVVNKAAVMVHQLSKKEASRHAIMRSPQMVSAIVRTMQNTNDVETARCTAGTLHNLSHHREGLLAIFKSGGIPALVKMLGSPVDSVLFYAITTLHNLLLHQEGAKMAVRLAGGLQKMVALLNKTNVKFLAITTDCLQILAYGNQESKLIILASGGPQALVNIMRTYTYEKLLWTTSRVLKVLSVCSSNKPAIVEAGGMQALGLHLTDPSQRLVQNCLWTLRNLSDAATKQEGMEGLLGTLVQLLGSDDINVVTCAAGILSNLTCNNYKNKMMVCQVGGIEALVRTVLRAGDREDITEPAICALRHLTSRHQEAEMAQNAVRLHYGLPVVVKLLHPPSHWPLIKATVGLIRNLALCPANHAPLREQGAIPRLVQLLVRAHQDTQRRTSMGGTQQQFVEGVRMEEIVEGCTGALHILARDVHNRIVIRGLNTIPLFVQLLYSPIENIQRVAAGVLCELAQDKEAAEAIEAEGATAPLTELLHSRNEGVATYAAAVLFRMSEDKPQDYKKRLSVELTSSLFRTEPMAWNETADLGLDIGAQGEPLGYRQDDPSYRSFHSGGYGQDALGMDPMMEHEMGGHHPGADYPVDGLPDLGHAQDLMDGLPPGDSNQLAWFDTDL
T1 sequence (P12830 whole entry): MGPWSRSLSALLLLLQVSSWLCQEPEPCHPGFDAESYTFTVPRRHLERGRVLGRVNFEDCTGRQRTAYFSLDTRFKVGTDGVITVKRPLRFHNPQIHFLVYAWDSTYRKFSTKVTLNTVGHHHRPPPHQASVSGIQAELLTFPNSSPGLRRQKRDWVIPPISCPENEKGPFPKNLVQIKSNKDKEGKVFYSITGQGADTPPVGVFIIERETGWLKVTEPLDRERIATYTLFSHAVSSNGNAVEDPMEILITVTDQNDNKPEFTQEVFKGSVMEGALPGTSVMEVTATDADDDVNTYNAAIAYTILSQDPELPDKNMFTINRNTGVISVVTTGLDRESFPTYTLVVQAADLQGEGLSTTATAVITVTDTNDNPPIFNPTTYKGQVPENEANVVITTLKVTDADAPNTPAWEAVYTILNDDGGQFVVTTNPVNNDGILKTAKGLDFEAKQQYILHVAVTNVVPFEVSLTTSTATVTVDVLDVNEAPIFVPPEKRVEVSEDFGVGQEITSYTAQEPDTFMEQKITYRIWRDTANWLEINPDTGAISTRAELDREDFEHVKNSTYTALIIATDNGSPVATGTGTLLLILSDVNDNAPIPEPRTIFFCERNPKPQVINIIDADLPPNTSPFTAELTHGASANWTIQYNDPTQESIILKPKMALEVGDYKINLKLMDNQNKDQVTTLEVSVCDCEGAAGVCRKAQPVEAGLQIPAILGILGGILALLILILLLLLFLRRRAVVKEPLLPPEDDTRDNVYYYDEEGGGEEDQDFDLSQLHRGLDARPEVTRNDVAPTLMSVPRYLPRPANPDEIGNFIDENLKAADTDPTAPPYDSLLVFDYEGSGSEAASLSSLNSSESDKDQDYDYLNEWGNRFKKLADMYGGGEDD
Nature of the experiment: Inhibition of full length beta-catenin (1 to 686 residues) (unknown origin) expressed in Escherichia coli BL21 (DE3)/N-terminal biotinylated human E-cadherin (824 to 877 residues) protein-protein interaction incubated for 2 hr by fluorescence anisotropy binding assay.

The nature of experiment [2]: Inhibition of Wnt/beta-catenin transactivation signalling in human SW480 cells transfected with renilla luciferase and TOPFlash reporter gene incubated for 24 hrs by dual-luciferase assay. The experiment is classed as cell-based. The conditions noted are these: SW480, 24 h.
A further experiment relates to SW480. The experiment is described as follows: Antiproliferative activity against beta-catenin signalling overexpressing human SW480 cells assessed as reduction in cell growth incubated for 72 hrs by MTS assay. The experiment is classed as functional, cell-based. As to conditions: SW480, 72 h.
Experiment [3] is described as follows: Inhibition of Wnt/beta-catenin transactivation signalling in human HEK293 cells transfected with TOPFlash reporter gene incubated for 24 hrs by TOPFlash luciferase assay. The experiment is classed as cell-based. As to conditions: HEK293, 24 h. Background: A reporter such as luciferase makes a cellular process visible.
The target in experiment [4] is T1, Catenin beta-1/Cadherin-1. Nature of the experiment: Inhibition of full length beta-catenin (1 to 686 residues) (unknown origin) expressed in Escherichia coli BL21 (DE3)/N-terminal biotinylated human E-cadherin (824 to 877 residues) protein-protein interaction incubated for 2 hr by Alphascreen assay.

As for `CC(C)(C)C1CCC(c2cc(C(=O)N3CCC(Oc4cc(N5CCNCC5)ccc4C#N)CC3)ccc2O[C@H]2CCNC2)CC1.Cl.Cl` (mixture of isomers; cis), the Kd in experiment [1] is 67 µM; in experiment [4], 80 µM. The half-inhibitory concentration (IC50) in experiment [2] turned out to be 2.6 µM; with SW480 it was 6.2 µM; in experiment [3] it was 5.7 µM.
